Columns and labels:
hTRPM8 = molecular target: T1, hTRPM8 (Homo sapiens, UniProt Q7Z2W7); assay: Ca2+ microfluorography assay, HEK293 cells expressing hTRPM8; assay type: cell-based; settings: HEK293-hTRPM8, 100 μM menthol
T1 construct: expressed in transfected cells
Description: This represents a similar activity as β–lactam 2 and a somewhat higher potency than the model TRPM8 antagonists AMTB.
To measure the effect of the compounds against TRPM8 activity we used microfluorometry-based calcium flux assays with Fluo-4 NW Ca^2+ dye and fluorescence as described in [30]. Briefly, human embryonic kidney cell line (HEK293) cells stably transfected with rTRPM8 or hTRPM8 were seeded in 96-well plates at a cell density of 30,000 cells. After 2 days the medium was replaced with 100 μL of the dye, Fluo-4 NW, loading solution supplemented with probenecid 2.5 mM and incubated 1 h at 37 °C. The TRPM8 activity was measured using POLASTAR plate reader (BMG Labtech) setting the excitation wavelength at 485 nm and the emission wavelength at 520 nm. The baseline fluorescence was recorded for 3 cycles before the addition of vehicle compound at different concentrations and the antagonist, 10 μM AMTB. Fluorescence intensity was recorded during 7 more cycles and 100 μM menthol was added. Fluorescence intensity was recorded during 10 more cycles.
Data analysis: The Z-factor was calculated in each assay using the following equation: (3 × (SDmax + SDmin))/(Mean max-Mean min). In all the experiments, the Z-factor was ≥0.5. The effect of the compounds against TRPM8 activity was determined by normalizing their effect on the maximum fluorescence observed after application of 100 μM menthol. […]

hCB2 = molecular target: T2, hCB2 (Homo sapiens, UniProt P34972); assay: Radioligand binding assay, CHO cells, hCB2
T2 construct: host or cells: CHO
Description: (§1) To define whether β–lactam derivative RGM8-51 could bind to CGRPR, CB2 and M3 receptors, in vitro binding assays were performed, using CHO cell lines transfected with these receptors. The degree of binding was determined by using specific radioligands for each receptor (Table 2, footnote).
(§2) These studies were subcontracted to Eurofins-CEREP or Eurofins-PANLABS. Briefly, agonists and antagonist assays were performed in cell cultures overexpressing the corresponding channel (CHO: TRPV1 and TRPA1; HEK293: TRPV3 and ASIC3). In vitro pharmacology, cellular channel functional assays: the compound was prepared in assay buffer to the final concentration, 10 μM. […] The agonist assay was conducted on fluorimeter instruments where the test compound, vehicle controls, and reference agonist were added to the assay plate after a fluorescence baseline was established. […] For the antagonist assay, the compound was pre-incubated for five minutes at room temperature, and then challenged with the EC80 concentration of the reference agonist after establishment of a fluorescence baseline. […] Binding assay results are expressed as a percent of control specific binding. […] Aqueous solubility (μM) was determined by comparing the peak area of the principal peak in a calibration standard (200 μM) containing organic solvent (methanol/water, 60/40, v/v) with the peak area of the corresponding peak in a buffer sample. […]

hCGRPR = molecular target: T3, hCGRPR (Homo sapiens, UniProt O60894+Q16602); assay: Radioligand binding assay, CHO cells, hCGRPR; settings: radioligand [125]hGCRPα
T3 construct: host or cells: CHO
Description: as §1, §2

T3 sequence (Q16602 23-461): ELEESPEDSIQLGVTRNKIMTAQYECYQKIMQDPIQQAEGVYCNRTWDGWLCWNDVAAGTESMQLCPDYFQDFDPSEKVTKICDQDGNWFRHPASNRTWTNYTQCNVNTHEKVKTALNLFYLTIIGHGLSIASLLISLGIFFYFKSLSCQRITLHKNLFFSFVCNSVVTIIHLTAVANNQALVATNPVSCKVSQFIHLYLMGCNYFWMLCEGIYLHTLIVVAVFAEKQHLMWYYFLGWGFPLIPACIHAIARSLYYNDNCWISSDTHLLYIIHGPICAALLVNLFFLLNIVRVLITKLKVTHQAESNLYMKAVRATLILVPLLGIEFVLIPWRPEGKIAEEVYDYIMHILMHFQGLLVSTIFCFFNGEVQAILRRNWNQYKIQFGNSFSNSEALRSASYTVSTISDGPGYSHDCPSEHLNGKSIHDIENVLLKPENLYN
T3 sequence (O60894 27-148 partner): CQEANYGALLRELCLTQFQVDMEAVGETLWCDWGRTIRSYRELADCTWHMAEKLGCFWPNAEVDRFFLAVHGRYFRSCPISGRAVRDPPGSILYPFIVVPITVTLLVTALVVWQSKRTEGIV
T2 sequence (P34972 whole entry): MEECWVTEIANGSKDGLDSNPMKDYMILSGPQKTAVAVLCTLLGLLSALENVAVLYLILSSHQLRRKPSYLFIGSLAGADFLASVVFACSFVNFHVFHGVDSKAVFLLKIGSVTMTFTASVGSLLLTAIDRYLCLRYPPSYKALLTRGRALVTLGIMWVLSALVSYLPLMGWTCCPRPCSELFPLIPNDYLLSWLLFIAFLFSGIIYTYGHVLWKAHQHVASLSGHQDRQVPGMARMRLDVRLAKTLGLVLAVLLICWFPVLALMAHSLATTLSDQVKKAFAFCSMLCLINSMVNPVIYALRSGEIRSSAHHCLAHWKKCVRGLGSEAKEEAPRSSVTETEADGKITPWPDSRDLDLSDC
T1 sequence (Q7Z2W7 whole entry): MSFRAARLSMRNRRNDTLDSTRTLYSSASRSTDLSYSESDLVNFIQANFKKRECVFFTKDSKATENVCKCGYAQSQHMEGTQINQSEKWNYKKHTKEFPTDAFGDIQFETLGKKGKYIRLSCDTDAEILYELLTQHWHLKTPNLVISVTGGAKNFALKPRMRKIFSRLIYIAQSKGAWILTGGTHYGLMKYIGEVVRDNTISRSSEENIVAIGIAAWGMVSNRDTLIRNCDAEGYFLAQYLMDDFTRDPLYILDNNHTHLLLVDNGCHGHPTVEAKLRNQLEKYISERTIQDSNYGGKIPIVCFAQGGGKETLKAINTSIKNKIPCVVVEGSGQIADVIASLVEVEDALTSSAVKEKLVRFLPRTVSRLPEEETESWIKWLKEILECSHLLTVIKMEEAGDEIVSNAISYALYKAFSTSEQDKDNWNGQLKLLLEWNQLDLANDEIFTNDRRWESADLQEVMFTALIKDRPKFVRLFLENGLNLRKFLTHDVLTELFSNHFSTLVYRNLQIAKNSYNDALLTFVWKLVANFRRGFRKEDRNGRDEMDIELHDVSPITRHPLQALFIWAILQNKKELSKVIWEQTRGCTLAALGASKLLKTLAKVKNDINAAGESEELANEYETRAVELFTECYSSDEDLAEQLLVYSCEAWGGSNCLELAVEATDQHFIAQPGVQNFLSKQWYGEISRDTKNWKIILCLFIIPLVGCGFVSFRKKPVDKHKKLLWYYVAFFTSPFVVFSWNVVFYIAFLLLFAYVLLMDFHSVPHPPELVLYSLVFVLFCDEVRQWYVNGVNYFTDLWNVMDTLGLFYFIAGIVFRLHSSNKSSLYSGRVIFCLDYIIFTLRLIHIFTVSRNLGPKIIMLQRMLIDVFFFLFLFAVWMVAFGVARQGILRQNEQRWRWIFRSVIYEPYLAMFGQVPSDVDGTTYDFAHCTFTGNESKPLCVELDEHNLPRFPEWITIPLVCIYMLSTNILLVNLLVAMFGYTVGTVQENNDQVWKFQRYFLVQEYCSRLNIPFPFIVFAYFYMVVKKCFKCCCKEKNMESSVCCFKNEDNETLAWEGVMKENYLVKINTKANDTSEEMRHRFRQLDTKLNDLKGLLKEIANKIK

With C[C@@H]1C(=O)N(C[C@H](Cc2ccccc2)N(Cc2ccccc2)Cc2ccccc2)[C@]1(Cc1ccccc1)C(=O)OC(C)(C)C [RGM8-51, 4(S)-Benzyl-3S-methyl-4-(tert-butoxy)carbonyl-1-[(2′S-dibenzylamino-3′-phenyl)prop-1′-yl]-2-oxoazetidine] the IC50 (hTRPM8) was 1740 ± 1190 nM, the “Binding hCB2 (%), inhibition of specific binding” value (hCB2; 10 μM, radioligand [3H]WIN 55212-2) was “did not show significant affinity” and the inhibition at 10 µM (hCB2; radioligand [3H]WIN 55212-2, read-out: Binding hCB2 (%), inhibition of specific binding) was 7.3 ± 0.3%. The “Binding hCGRPR (%), inhibition of specific binding” value (hCGRPR; 10 μM) was “did not show significant affinity” and the inhibition at 10 µM (hCGRPR; read-out: Binding hCGRPR (%), inhibition of specific binding) was -1 ± 4.3%.

From publication PMC8910920 (International Journal of Molecular Sciences, 2022)
